In publication PMC3774597 (Journal of biomolecular screening, 2012) one finds IC50 and Km data, which are given here for two molecules.

In data set [1] the target is T1, isoleucyl-tRNA synthetase (IleRS) (Trypanosoma brucei, UniProt Q38A55).
T1 sequence (Q38A55 67-1143): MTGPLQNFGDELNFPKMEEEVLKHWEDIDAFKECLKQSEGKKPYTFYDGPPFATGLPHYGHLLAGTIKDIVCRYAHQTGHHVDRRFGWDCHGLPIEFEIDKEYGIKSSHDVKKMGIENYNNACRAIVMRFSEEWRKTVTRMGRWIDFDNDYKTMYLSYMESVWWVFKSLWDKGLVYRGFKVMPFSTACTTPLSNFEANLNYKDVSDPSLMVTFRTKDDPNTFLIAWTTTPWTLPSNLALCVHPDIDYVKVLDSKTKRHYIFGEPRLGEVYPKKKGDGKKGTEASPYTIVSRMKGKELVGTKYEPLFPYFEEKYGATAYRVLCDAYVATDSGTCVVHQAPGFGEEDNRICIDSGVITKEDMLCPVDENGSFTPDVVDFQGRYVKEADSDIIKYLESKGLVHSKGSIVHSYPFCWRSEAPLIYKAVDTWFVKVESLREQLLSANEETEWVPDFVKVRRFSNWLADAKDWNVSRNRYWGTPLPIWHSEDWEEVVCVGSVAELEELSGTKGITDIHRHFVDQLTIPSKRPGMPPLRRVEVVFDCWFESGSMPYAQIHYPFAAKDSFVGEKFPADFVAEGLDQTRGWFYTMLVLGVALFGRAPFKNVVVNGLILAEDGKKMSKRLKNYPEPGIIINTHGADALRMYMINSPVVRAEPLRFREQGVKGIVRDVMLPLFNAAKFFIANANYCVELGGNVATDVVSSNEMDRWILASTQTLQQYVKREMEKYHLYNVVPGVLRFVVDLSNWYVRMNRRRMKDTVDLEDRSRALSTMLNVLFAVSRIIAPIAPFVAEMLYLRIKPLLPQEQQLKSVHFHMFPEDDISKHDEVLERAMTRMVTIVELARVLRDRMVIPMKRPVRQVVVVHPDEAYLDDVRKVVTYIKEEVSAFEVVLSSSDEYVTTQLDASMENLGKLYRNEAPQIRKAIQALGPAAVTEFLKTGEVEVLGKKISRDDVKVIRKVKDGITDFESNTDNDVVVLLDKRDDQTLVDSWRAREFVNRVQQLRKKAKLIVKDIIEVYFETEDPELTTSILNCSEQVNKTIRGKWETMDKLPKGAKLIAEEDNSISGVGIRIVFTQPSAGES
Briefly: malachite green aminoacylation assay coupled to pyrophosphatase, dose response. It is filed as biochemical.

Substrate in data set [2]: CC[C@H](C)[C@H](N)C(=O)O
Description: Michaelis-Menten kinetics. The data set is classed as biochemical, Trypanosoma brucei.

Regarding `CC(C)(C)[Si](C)(C)OCC1OC(n2cnc3c(N)ncnc32)C(O)C1O` (centres unmarked) [NSC616354], in data set [1], the IC50 – broadly, the concentration that inhibits the measured activity by half – was 600 nM.

B1: isoleucyl-tRNA synthetase (IleRS) (Trypanosoma brucei brucei TREU927) (protein)
chain: MTGPLQNFGDELNFPKMEEEVLKHWEDIDAFKECLKQSEGKKPYTFYDGPPFATGLPHYGHLLAGTIKDIVCRYAHQTGHHVDRRFGWDCHGLPIEFEIDKEYGIKSSHDVKKMGIENYNNACRAIVMRFSEEWRKTVTRMGRWIDFDNDYKTMYLSYMESVWWVFKSLWDKGLVYRGFKVMPFSTACTTPLSNFEANLNYKDVSDPSLMVTFRTKDDPNTFLIAWTTTPWTLPSNLALCVHPDIDYVKVLDSKTKRHYIFGEPRLGEVYPKKKGDGKKGTEASPYTIVSRMKGKELVGTKYEPLFPYFEEKYGATAYRVLCDAYVATDSGTCVVHQAPGFGEEDNRICIDSGVITKEDMLCPVDENGSFTPDVVDFQGRYVKEADSDIIKYLESKGLVHSKGSIVHSYPFCWRSEAPLIYKAVDTWFVKVESLREQLLSANEETEWVPDFVKVRRFSNWLADAKDWNVSRNRYWGTPLPIWHSEDWEEVVCVGSVAELEELSGTKGITDIHRHFVDQLTIPSKRPGMPPLRRVEVVFDCWFESGSMPYAQIHYPFAAKDSFVGEKFPADFVAEGLDQTRGWFYTMLVLGVALFGRAPFKNVVVNGLILAEDGKKMSKRLKNYPEPGIIINTHGADALRMYMINSPVVRAEPLRFREQGVKGIVRDVMLPLFNAAKFFIANANYCVELGGNVATDVVSSNEMDRWILASTQTLQQYVKREMEKYHLYNVVPGVLRFVVDLSNWYVRMNRRRMKDTVDLEDRSRALSTMLNVLFAVSRIIAPIAPFVAEMLYLRIKPLLPQEQQLKSVHFHMFPEDDISKHDEVLERAMTRMVTIVELARVLRDRMVIPMKRPVRQVVVVHPDEAYLDDVRKVVTYIKEEVSAFEVVLSSSDEYVTTQLDASMENLGKLYRNEAPQIRKAIQALGPAAVTEFLKTGEVEVLGKKISRDDVKVIRKVKDGITDFESNTDNDVVVLLDKRDDQTLVDSWRAREFVNRVQQLRKKAKLIVKDIIEVYFETEDPELTTSILNCSEQVNKTIRGKWETMDKLPKGAKLIAEEDNSISGVGIRIVFTQPSAGES
For the molecule B1, the Km – broadly, the concentration of substrate that gives half-maximal velocity – in data set [2] came out at 39.7 µM.
